Source: the supplement of paper PMC4932681

Columns and labels:
T-47D Tam1 [1] = experiment: relative IC50 (midpoint of fitted logistic curve, plateau may be below 50% inhibition; CellTiter-Glo viability); higher = less potent; settings: 4-OH-tamoxifen in medium 1 µM; 72 h
Outline: (§1)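 After seeding into 384-well plates with library drugs at five concentrations spanning a 10 000-fold range, breast cancer cell lines and their resistant derivatives were incubated 72 h at 37 °C. Resistant lines received medium with 1 μM of the selecting drug. CellTiter-Glo signal was read on a PHERAstar and scaled to vehicle-only and positive controls. Drug sensitivity score, relative IC50 (the curve midpoint) and top-dose inhibition came from logistic fits run in the Breeze pipeline.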

MCF-7 Tam1 [2] = experiment: as above; settings: 4-OH-tamoxifen in medium 1 µM; 72 h
Outline: as §1

ZR-75-1 Tam1 [3] = experiment: as above; settings: 4-OH-tamoxifen in medium 1 µM; 72 h
Outline: as §1

T-47D [4] = experiment: as above; settings: 72 h
Outline: as §1

ZR-75-1 Tam2 [5] = experiment: as above; settings: 4-OH-tamoxifen in medium 1 µM; 72 h
Outline: as §1

MCF-7 [6] = experiment: as above; settings: 72 h
Outline: as §1

BT-474 [7] = experiment: as above; settings: 72 h
Outline: as §1

ZR-75-1 [8] = experiment: as above; settings: 72 h
Outline: as §1

BT-474 Tam2 [9] = experiment: as above; settings: 4-OH-tamoxifen in medium 1 µM; 72 h
Outline: as §1

T-47D Tam2 [10] = experiment: as above; settings: 4-OH-tamoxifen in medium 1 µM; 72 h
Outline: as §1

BT-474 Tam1 [11] = experiment: as above; settings: 4-OH-tamoxifen in medium 1 µM; 72 h
Outline: as §1

T-47D Tam1 [12] = experiment: drug sensitivity score (DSS) (DSS (dimensionless)); higher = more sensitive; extreme values may be limits of the assay; settings: 4-OH-tamoxifen in medium 1 µM; 72 h
Outline: as §1

MCF-7 Tam1 [13] = experiment: as above; settings: 4-OH-tamoxifen in medium 1 µM; 72 h
Outline: as §1

ZR-75-1 Tam1 [14] = experiment: as above; settings: 4-OH-tamoxifen in medium 1 µM; 72 h
Outline: as §1

T-47D [15] = experiment: as above; settings: 72 h
Outline: as §1

ZR-75-1 Tam2 [16] = experiment: as above; settings: 4-OH-tamoxifen in medium 1 µM; 72 h
Outline: as §1

MCF-7 [17] = experiment: as above; settings: 72 h
Outline: as §1

BT-474 [18] = experiment: as above; settings: 72 h
Outline: as §1

ZR-75-1 [19] = experiment: as above; settings: 72 h
Outline: as §1

BT-474 Tam2 [20] = experiment: as above; settings: 4-OH-tamoxifen in medium 1 µM; 72 h
Outline: as §1

T-47D Tam2 [21] = experiment: as above; settings: 4-OH-tamoxifen in medium 1 µM; 72 h
Outline: as §1

BT-474 Tam1 [22] = experiment: as above; settings: 4-OH-tamoxifen in medium 1 µM; 72 h
Outline: as §1

| Structure (SMILES) | relative IC50 (T-47D Tam1 [1]) | relative IC50 (MCF-7 Tam1 [2]) | relative IC50 (ZR-75-1 Tam1 [3]) | relative IC50 (T-47D [4]; 4-OH-tamoxifen in medium 0 µM) | relative IC50 (T-47D [4]; 4-OH-tamoxifen in medium 1 µM) | relative IC50 (ZR-75-1 Tam2 [5]) | relative IC50 (MCF-7 [6]; 4-OH-tamoxifen in medium 0 µM) | relative IC50 (MCF-7 [6]; 4-OH-tamoxifen in medium 1 µM) | relative IC50 (BT-474 [7]; 4-OH-tamoxifen in medium 0 µM) | relative IC50 (BT-474 [7]; 4-OH-tamoxifen in medium 1 µM) | relative IC50 (ZR-75-1 [8]; 4-OH-tamoxifen in medium 0 µM) | relative IC50 (ZR-75-1 [8]; 4-OH-tamoxifen in medium 1 µM) | relative IC50 (BT-474 Tam2 [9]) | relative IC50 (T-47D Tam2 [10]) | relative IC50 (BT-474 Tam1 [11]) | drug sensitivity score (T-47D Tam1 [12]) | drug sensitivity score (MCF-7 Tam1 [13]) | drug sensitivity score (ZR-75-1 Tam1 [14]) | drug sensitivity score (T-47D [15]; 4-OH-tamoxifen in medium 0 µM) | drug sensitivity score (T-47D [15]; 4-OH-tamoxifen in medium 1 µM) | drug sensitivity score (ZR-75-1 Tam2 [16]) | drug sensitivity score (MCF-7 [17]; 4-OH-tamoxifen in medium 0 µM) | drug sensitivity score (MCF-7 [17]; 4-OH-tamoxifen in medium 1 µM) | drug sensitivity score (BT-474 [18]; 4-OH-tamoxifen in medium 0 µM) | drug sensitivity score (BT-474 [18]; 4-OH-tamoxifen in medium 1 µM) | drug sensitivity score (ZR-75-1 [19]; 4-OH-tamoxifen in medium 0 µM) | drug sensitivity score (ZR-75-1 [19]; 4-OH-tamoxifen in medium 1 µM) | drug sensitivity score (BT-474 Tam2 [20]) | drug sensitivity score (T-47D Tam2 [21]) | drug sensitivity score (BT-474 Tam1 [22]) |
| --- | --- | --- | --- | --- | --- | --- | --- | --- | --- | --- | --- | --- | --- | --- | --- | --- | --- | --- | --- | --- | --- | --- | --- | --- | --- | --- | --- | --- | --- | --- |
| O=NN(CCCl)C(=O)NCCCl [Carmustine] | > 10000 nM | > 10000 nM | > 10000 nM | > 10000 nM | > 10000 nM | > 10000 nM | > 10000 nM | > 10000 nM | > 10000 nM | > 10000 nM | > 10000 nM | > 10000 nM | > 10000 nM | > 10000 nM | > 10000 nM | 0 | 0 | 0 | 0 | 0 | 0 | 0 | 0 | 0 | 0 | 0 | 0 | 0 | 0 | 0 |
| C[C@]12CC[C@H](O)CC1=CC[C@@H]1[C@@H]2CC[C@]2(C)C(c3cccnc3)=CC[C@@H]12 [Abiraterone (CB-7598)] | > 5000 nM | > 5000 nM | > 5000 nM | > 5000 nM | > 5000 nM | > 5000 nM | > 5000 nM | > 5000 nM | > 5000 nM | > 5000 nM | > 5000 nM | > 5000 nM | > 5000 nM | > 5000 nM | > 5000 nM | 0 | 0 | 0 | 0 | 0 | 0 | 0 | 0 | 0 | 0 | 0 | 0 | 0 | 0 | 0 |
| CO[C@H](C(=O)[C@@H](O)[C@@H](C)O)[C@@H]1Cc2cc3cc(O[C@H]4C[C@@H](O[C@@H]5C[C@@H](O)[C@H](O)[C@@H](C)O5)[C@H](O)[C@@H](C)O4)c(C)c(O)c3c(O)c2C(=O)[C@H]1O[C@H]1C[C@@H](O[C@@H]2C[C@@H](O)[C@@H](O[C@@H]3C[C@](C)(O)[C@H](O)[C@@H](C)O3)[C@@H](C)O2)[C@H](O)[C@@H](C)O1 [Plicamycin  (Mithramycin A)] | 36.3 nM | 318 nM | 58.6 nM | 84.6 nM | 110 nM | 64.5 nM | 401 nM | 150 nM | 357 nM | 542 nM | 45.3 nM | 66.5 nM | 495 nM | 57 nM | 632 nM | 22 | 14.1 | 22.1 | 18.4 | 13.2 | 23.6 | 14.9 | 20.1 | 11.9 | 14.3 | 21.5 | 19 | 14.9 | 17.4 | 13.7 |
